Measured values published in ChEMBL document CHEMBL5113482, “Discovery of fused benzimidazole-imidazole autophagic flux inhibitors for treatment of triple-negative breast cancer” (Eur J Med Chem, 2022).
Calls of active or inactive are those of the source. No cut-off for these calls is given here.

Assays:
[1] = molecular target: Serine-protein kinase ATM (Homo sapiens) (UniProt Q13315); experiment: Activation of ATM phosphorylation in human MDA-MB-468 cells at 5 to 20 uM measured after 6 to 48 hrs by Western blot analysis; type: cell-based; details: filed as activator, dose 5-20 µM, time 6-48 hrs
Serine-protein kinase ATM (Homo sapiens), sequence (Q13315 whole entry): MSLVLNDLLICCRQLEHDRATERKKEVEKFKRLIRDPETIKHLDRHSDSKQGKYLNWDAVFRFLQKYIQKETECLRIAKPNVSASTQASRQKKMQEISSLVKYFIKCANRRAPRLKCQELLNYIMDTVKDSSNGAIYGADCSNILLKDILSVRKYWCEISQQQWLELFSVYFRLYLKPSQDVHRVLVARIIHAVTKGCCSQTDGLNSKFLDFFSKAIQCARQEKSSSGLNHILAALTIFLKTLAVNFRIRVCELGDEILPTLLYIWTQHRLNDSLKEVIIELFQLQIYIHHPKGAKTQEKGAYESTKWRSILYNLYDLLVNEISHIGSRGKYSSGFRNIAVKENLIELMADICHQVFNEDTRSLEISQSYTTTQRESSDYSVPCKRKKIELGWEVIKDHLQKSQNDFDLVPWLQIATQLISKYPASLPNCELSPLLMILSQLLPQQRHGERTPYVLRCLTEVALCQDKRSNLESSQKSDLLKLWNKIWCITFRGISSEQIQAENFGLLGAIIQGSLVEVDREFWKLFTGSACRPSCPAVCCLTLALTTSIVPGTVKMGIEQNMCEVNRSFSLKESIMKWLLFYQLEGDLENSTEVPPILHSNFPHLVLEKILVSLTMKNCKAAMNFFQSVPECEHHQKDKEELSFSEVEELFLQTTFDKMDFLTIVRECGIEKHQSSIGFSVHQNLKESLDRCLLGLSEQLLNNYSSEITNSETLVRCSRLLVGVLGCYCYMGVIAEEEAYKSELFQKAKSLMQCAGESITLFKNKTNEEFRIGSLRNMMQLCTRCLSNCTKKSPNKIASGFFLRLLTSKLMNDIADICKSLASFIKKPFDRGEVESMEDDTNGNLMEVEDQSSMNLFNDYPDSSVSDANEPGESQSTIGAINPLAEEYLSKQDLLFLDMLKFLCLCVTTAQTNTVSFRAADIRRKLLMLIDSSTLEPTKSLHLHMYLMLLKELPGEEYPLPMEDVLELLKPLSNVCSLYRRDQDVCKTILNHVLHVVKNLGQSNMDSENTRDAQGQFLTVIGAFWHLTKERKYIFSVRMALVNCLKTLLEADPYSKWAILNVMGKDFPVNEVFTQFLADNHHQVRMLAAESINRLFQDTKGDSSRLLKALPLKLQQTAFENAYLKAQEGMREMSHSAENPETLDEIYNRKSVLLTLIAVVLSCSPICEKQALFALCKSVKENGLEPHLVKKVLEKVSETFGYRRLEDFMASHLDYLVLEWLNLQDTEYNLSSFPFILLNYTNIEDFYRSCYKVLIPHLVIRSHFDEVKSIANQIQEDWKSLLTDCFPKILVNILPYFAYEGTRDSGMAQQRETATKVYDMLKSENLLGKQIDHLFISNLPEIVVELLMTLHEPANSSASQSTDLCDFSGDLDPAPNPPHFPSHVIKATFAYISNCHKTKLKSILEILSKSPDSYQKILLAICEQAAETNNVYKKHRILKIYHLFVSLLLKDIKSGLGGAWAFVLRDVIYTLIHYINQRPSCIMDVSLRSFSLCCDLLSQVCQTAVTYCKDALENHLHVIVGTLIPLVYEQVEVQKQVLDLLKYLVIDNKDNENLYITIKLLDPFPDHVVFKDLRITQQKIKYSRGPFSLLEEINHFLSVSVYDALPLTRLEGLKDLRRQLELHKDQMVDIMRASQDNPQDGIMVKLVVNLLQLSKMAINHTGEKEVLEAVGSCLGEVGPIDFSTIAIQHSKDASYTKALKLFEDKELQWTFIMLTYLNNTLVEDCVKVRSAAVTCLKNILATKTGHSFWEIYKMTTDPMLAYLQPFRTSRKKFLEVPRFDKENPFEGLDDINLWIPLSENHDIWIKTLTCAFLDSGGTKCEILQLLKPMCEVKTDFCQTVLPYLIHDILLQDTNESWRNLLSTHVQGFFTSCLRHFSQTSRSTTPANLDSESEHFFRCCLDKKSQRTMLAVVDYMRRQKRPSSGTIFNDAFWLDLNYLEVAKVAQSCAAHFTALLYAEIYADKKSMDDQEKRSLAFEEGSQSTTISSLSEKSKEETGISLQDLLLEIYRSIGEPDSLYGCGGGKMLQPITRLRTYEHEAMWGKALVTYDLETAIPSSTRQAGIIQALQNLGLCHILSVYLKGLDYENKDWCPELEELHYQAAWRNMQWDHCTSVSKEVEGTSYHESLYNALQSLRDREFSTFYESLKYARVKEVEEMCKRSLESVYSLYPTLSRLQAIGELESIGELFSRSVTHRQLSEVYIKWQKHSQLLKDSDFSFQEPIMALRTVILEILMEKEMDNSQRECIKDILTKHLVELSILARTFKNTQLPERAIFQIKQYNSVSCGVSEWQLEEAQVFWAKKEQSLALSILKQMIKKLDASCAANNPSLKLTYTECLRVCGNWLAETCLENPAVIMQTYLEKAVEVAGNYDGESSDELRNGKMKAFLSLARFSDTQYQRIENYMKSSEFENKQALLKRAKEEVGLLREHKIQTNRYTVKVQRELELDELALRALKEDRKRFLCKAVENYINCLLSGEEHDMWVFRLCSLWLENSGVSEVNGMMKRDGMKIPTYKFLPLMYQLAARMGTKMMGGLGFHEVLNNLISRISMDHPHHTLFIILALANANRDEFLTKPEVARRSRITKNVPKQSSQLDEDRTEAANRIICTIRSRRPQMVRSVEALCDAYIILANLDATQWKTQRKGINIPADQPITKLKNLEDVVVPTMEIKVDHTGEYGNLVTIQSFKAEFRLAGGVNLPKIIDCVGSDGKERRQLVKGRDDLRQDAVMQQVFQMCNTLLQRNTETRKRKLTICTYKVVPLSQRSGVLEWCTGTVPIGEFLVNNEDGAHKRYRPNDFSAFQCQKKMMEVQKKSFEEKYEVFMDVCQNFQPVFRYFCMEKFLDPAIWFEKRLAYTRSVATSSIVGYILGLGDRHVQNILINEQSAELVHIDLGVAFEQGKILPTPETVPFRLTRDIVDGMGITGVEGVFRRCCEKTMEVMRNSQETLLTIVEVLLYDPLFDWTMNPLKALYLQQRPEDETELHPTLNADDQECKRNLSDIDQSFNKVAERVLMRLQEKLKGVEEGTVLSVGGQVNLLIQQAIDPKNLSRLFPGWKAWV

MDA-MB-231 [2] = experiment: Antitumor activity against human MDA-MB-231 cells xenografted in ip dosed NOD/SCID mouse assessed as upregulation of gamma-H2AX expression administered at 3 days interval for 24 days and measured on day 25 by Western blot analysis; type: functional, organism-based; details: dose 5-15 mg/kg, time 25.0 day, DDE = dose-dependent effect
HCT-116 = experiment: Antiproliferative activity against human HCT-116 cells assessed as cell growth inhibition measured after 48 hrs by MTT assay; type: functional, cell-based; details: HCT-116, 48 h
MDA-MB-231 [3] = experiment: Antitumor activity against human MDA-MB-231 cells xenografted in ip dosed NOD/SCID mouse assessed as upregulation of LC3B-II expression administered at 3 days interval for 24 days and measured on day 25 by Western blot analysis; type: functional, organism-based; details: dose 5-15 mg/kg, time 25.0 day, DDE = dose-dependent effect
MDA-MB-231 [4] = experiment: Induction of apoptosis in human MDA-MB-231 cells assessed as increase in late apoptotic cells measured after 48 hrs by Annexin V-FITC/propidium iodide staining based flow cytometry; type: functional, cell-based; details: dose 5-20 µM, DDE = dose-dependent effect
MDA-MB-231 [5] = experiment: Antiproliferative activity against human MDA-MB-231 cells assessed as reduction in Ki67 expression measured after 48 hrs by immunofluorescence analysis; type: functional, cell-based
MDA-MB-468 [6] = experiment: Inhibition of autophagic flux in human MDA-MB-468 cells assessed as reduction in RNF8 expression at 5 to 20 uM measured after 6 to 48 hrs by Western blot analysis; type: functional, cell-based; details: dose 5-20 µM, time 6-48 hrs
U-87 MG = experiment: Antiproliferative activity against human U87 cells assessed as cell growth inhibition measured after 48 hrs by MTT assay; type: functional, cell-based, U-87MG ATCC
MDA-MB-468 [7] = experiment: Inhibition of autophagic flux in human MDA-MB-468 cells assessed as increase in cytoplasmic p62 expression measured after 48 hrs by Western blot analysis; type: functional, cell-based; details: dose 5-20 µM, DDE = dose-dependent effect
MDA-MB-468 [8] = experiment: Cell cycle arrest in human MDA-MB-468 cells assessed as reduction in cyclin B expression measured after 48 hrs by Western blot analysis; type: functional, cell-based; details: dose 5-20 µM, DDE = dose-dependent effect
MDA-MB-231 [9] = experiment: Induction of apoptosis in human MDA-MB-231 cells assessed as increase in cleaved caspase-9 expression measured after 48 hrs by Western blot analysis; type: functional, cell-based; details: dose 5-20 µM, DDE = dose-dependent effect
MDA-MB-231 [10] = experiment: Inhibition of autophagic flux in human MDA-MB-231 cells assessed as increase in nuclear p62 expression measured after 48 hrs by immunofluorescence analysis; type: functional, cell-based; details: dose 5-20 µM, DDE = dose-dependent effect
[11] = molecular target: T1, Structural maintenance of chromosomes protein 1A (Homo sapiens) (UniProt Q14683); experiment: Activation of SMC1 phosphorylation in human MDA-MB-231 cells at 5 to 20 uM measured after 6 to 48 hrs by Western blot analysis; type: cell-based; details: filed as activator, dose 5-20 µM, time 6-48 hrs
T1 sequence (whole entry): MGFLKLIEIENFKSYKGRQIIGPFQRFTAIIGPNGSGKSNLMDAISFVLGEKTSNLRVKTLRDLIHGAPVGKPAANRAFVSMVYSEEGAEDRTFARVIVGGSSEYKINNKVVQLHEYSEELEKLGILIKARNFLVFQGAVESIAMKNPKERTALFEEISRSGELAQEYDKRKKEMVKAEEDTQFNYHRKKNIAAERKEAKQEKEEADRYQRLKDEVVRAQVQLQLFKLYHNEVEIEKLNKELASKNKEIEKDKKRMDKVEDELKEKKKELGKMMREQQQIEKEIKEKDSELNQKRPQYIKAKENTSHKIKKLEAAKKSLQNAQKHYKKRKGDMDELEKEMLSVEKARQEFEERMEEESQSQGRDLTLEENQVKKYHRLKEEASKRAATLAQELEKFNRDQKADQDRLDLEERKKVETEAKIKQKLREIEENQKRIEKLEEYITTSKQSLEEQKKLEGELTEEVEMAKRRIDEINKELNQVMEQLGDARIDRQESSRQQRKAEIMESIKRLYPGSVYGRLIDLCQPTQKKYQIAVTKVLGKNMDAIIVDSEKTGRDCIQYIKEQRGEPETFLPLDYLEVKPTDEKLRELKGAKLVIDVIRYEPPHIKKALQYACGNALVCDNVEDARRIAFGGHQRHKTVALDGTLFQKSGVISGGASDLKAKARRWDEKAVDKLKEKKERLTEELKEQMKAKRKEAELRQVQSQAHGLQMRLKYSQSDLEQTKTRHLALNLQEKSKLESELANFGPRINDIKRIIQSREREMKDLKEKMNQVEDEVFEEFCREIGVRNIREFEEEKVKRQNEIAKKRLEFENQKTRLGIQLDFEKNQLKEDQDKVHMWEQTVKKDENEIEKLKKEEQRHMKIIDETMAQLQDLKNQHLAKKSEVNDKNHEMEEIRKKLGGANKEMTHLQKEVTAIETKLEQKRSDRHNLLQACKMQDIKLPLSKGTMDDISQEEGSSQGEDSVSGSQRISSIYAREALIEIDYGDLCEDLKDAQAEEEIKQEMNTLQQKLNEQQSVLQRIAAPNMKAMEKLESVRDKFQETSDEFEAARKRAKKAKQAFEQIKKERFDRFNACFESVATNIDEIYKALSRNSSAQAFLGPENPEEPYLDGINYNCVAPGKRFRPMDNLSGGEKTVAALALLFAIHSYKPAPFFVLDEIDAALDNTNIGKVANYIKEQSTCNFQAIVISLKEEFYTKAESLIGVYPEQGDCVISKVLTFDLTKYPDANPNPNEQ

MDA-MB-231 [12] = experiment: Induction of apoptosis in human MDA-MB-231 cells assessed as increase in cleaved caspase-3 expression measured after 48 hrs by Western blot analysis; type: functional, cell-based; details: dose 5-20 µM, DDE = dose-dependent effect
MDA-MB-468 [13] = experiment: Induction of apoptosis in human MDA-MB-468 cells assessed as increase in cleaved caspase-3 expression measured after 48 hrs by Western blot analysis; type: functional, cell-based; details: dose 5-20 µM, DDE = dose-dependent effect
MDA-MB-468 [14] = experiment: Inhibition of colony formation in human MDA-MB-468 cells at 5 to 20 umol/l pretreated for 48 hrs followed by replacement of fresh medium and measured after 15 days by crystal violet staining based assay; type: functional, cell-based; details: dose 5-20 µmol/L
MDA-MB-231 [15] = experiment: Inhibition of autophagy in human MDA-MB-231 cells assessed as increase in p62 expression at 5 to 20 uM measured after 48 hrs by Western blot analysis; type: functional, cell-based; details: dose 5-20 µM, DDE = dose-dependent effect
MDA-MB-468 [16] = experiment: Inhibition of autophagic flux in human MDA-MB-468 cells assessed as increase in nuclear p62 expression measured after 48 hrs by Western blot analysis; type: functional, cell-based; details: dose 5-20 µM, DDE = dose-dependent effect
[17] = molecular target: Serine-protein kinase ATM (Homo sapiens) (UniProt Q13315); experiment: Activation of ATM phosphorylation in human MDA-MB-231 cells at 5 to 20 uM measured after 6 to 48 hrs by Western blot analysis; type: cell-based; details: filed as activator, dose 5-20 µM, time 6-48 hrs
SCC-25 = experiment: Antiproliferative activity against human SCC-25 cells assessed as cell growth inhibition measured after 48 hrs by MTT assay; type: functional, cell-based; details: SCC-25, 48 h
MDA-MB-468 [18] = experiment: Induction of apoptosis in human MDA-MB-468 cells assessed as increase in Bak expression measured after 48 hrs by Western blot analysis; type: functional, cell-based; details: dose 5-20 µM, DDE = dose-dependent effect
MDA-MB-231 [19] = experiment: Cell cycle arrest in human MDA-MB-231 cells assessed as reduction in cyclin B expression measured after 48 hrs by Western blot analysis; type: functional, cell-based; details: dose 5-20 µM, DDE = dose-dependent effect
MDA-MB-468 [20] = experiment: Antiproliferative activity against human MDA-MB-468 cells assessed as cell growth inhibition measured after 48 hrs by MTT assay; type: functional, cell-based; details: MDA-MB-468, 48 h

O=C(NC1CCCCC1)c1[nH]cnc1-c1nc2ccccc2[nH]1
Activity [1]: Active | Activity (MDA-MB-231 [2]): Dde | IC50 (HCT-116): 35.5 µM | Activity (MDA-MB-231 [3]): Dde | Activity (MDA-MB-231 [4]): Dde | Activity (MDA-MB-231 [5]): Active | inhibition (MDA-MB-468 [6]): Active | IC50 (U-87 MG): 15.4 µM | inhibition (MDA-MB-468 [7]): Dde | Activity (MDA-MB-468 [8]): Dde | Activity (MDA-MB-231 [9]): Dde | inhibition (MDA-MB-231 [10]): Dde | Activity [11]: Active | Activity (MDA-MB-231 [12]): Dde | Activity (MDA-MB-468 [13]): Dde | inhibition (MDA-MB-468 [14]): Active | inhibition (MDA-MB-231 [15]): Dde | inhibition (MDA-MB-468 [16]): Dde | Activity [17]: Active | IC50 (SCC-25): 18.6 µM | Activity (MDA-MB-468 [18]): Dde | Activity (MDA-MB-231 [19]): Dde | IC50 (MDA-MB-468 [20]): 6.03 µM
